Reference: the NIST ThermoML archive (doi:10.1016/j.fluid.2018.05.018)
Numbers after ± are expanded uncertainties.

Details: Crystal; visual observation

`CCOC(=O)N1CCC(=C2c3ccc(Cl)cc3CCc3cccnc32)CC1` [claritine] showed a Normal melting temperature of 134 ± 4 °C.
